# Measured values taken from US5668150A, “Non-symmetrical bis-heteroarylmethoxyphenylalkyl carboxylates as inhibitors of leukotriene biosynthesis” (Abbott Laboratories, priority 1996, dated 1997).
# Counter-ions that a name gives are not always drawn. Like-named read-outs stand apart in the source and are kept apart here.
# Test system: 5-Lipoxygenase
# Assay: Inhibition of leukotriene biosynthesis in vitro: calcium ionophore-induced LTB4 formation in human polymorphonuclear leukocytes (PMNL)
# Format: cell-based
# Conditions: calcium ionophore 8.3 μM, 15 min preincubation, 37 °C; for % I, In Vitro Inhibitory Potencies Against 5-Lipoxygenase from Stimulated LTB4 Formation in Human Polymorphonuclear Leukocytes: @ 0.10 μM; for IC50: read-out: IC50, In Vitro Inhibitory Potencies Against 5-Lipoxygenase from Stimulated LTB4 Formation in Human Polymorphonuclear Leukocytes
# Protocol: Inhibition of leukotriene biosynthesis was evaluated in vitro using an assay involving calcium ionophore-induced LTB4 expressed in human (PMNL). Human PMNL isolated from heparinized (20 USP units/mL) venous blood (25 mL) obtained from healthy volunteers was layered over an equal volume of Ficoll-Hypaque Mono-Poly Resolving Medium (ICN Flow, Costa Mesa, Calif.) and centrifuged at 400×g for 40 min at 20° C. The PMNL was collected, erythrocytes lysed and washed 2× and suspended at 1.0×10^7 cells/mL in Earle's balanced salt solution with 17 mM Earle's HEPES. Aliquots of the cell suspension were preincubated with test compounds dissolved in DMSO (final concentration <2%) for 15 min. and stimulated with calcium ionophore (final concentration 8.3 μM) for 10 min. at 37 ° C. Incubations were stopped with the addition of two volumes of ice-cold methanol followed by centrifuging the cell suspensions at 4° C. for 10 rain at 450×g. The mount of LTB4 in the methanol extract was analyzed by enzyme-linked immunoassay or by HPLC analysis.
compound,measurement,setting,value
"CC(CCC(=O)O)(c1ccc(OCc2ccc3ccccc3c2)cc1)c1ccc(OCc2ccc3ccccc3n2)cc1 (centres unmarked) [Example 3, 4-(4-(2-naphthylmethoxy)phenyl)-4-(4-(2-quinolylmethoxy)phenyl)pentanoic acid]","% I, In Vitro Inhibitory Potencies Against 5-Lipoxygenase from Stimulated LTB4 Formation in Human Polymorphonuclear Leukocytes",,93%
"CC(CCC(=O)O)(c1ccc(OCc2ccc3ccccc3n2)cc1)c1ccc(OCc2nc3ccccc3s2)cc1 (centres unmarked) [Example 1, 4-(4-(2-benzothiazolylmethoxy)phenyl)-4-(4-(2-quinolylmethoxy)phenyl)pentanoic acid]","% I, In Vitro Inhibitory Potencies Against 5-Lipoxygenase from Stimulated LTB4 Formation in Human Polymorphonuclear Leukocytes",,95%
"Cn1c(COc2ccc(C(C)(CCC(=O)O)c3ccc(OCc4ccc5ccccc5n4)cc3)cc2)nc2ccccc21 (centres unmarked) [Example 5, 4-(4-(2-(1-methyl)benzimidazolylmethoxy)phenyl)-4-(4-(2-quinolylmethoxy)phenyl)pentanoic acid sodium salt]",IC50,sodium salt,0.08 µM
"Cn1c(COc2ccc(C(C)(CCC(=O)O)c3ccc(OCc4ccc5ccccc5n4)cc3)cc2)nc2ccccc21 (centres unmarked) [Example 6, 4-(4-(2-(1-methyl)benzimidazolylmethoxy)phenyl)-4-(4-(2-quinolylmethoxy)phenyl)pentanoic acid sodium salt]",IC50,sodium salt,0.09 µM
"CC(CCC(=O)O)(c1ccc(OCc2ccc3ccccc3n2)cc1)c1ccc(OCc2nc3ccccc3s2)cc1 (centres unmarked) [Example 2, 4-(4-(2-benzothiazolylmethoxy)phenyl)-4-(4-(2-quinolylmethoxy)phenyl)pentanoic acid sodium salt]",IC50,,0.052 µM
